Measurements published in patent US12576107B2, “Methods of treating chronic inflammatory diseases” (METIMEDI PHARMACEUTICALS CO., LTD., priority 2018, dated 2026).

Key:
lactate dehydrogenase A = assay: Human endothelial cell in vitro experiment, Western blot in HUVEC; type: cell-based; details: 2.5 mM, human umbilical vein endothelial cells
Description: Human Umbilical Vein Endothelial cell line, HUVEC, was purchased from American Type Culture Collection (Manassas, VA, USA). The HUVEC cells were Endothelial Cell Growth Medium 2 maintained in Endothelial Cell Growth Medium 2 Supplement MIX (PromoCell, Heidelberg, Germany)
(§1) To prepare whole cell lysate, cells were lysed with lysis buffer (1% NP-40, 0.25% sodium deoxycholate, 150 mM NaCl, 1 mM EDTA, 1% Triton X-100, 50 mM Tris-HCl (pH 7.4), 10% Glycerol) with protease inhibitor cocktail (Roche, Basel, Switzerland) and phosphatase inhibitors (NA3VO4 1 mM, NaF 100 mM). Then, protein concentration was measured using the Bicinchoninic acid (BCA) assay kit (Thermo Scientific, Waltham, MA). Whole cell or nuclear lysates were transferred onto polyvinylidene fluoride membranes (Merck Millipore, Billerica, MA, USA). After blocking in 5% non-fat milk (Bio-Rad, Hercules, CA, USA) for 1 h, the membranes were incubated overnight at 4° C. with primary antibody diluted in TBST containing 100 mM Tris-HCl (pH 7.5), 1.5 M NaCl, and 0.5% Tween-20 obtained from Sigma-Aldrich, to which 5% BSA and 0.1% sodium azide (Sigma-Aldrich) had been added. Specific primary antibodies to HIF-1α (1:1000), HIF-2α (1:1000), LDH-A (1:1000), LDH-B (1:1000), TLR-4 (1:1000), NF-κB (1:1000), VEGF (1:1000), α-tubulin (1:1000), Actin (1:1000), and GAPDH (1:5000). […]

nuclear factor-kappa B = assay: Immunocytochemistry of nuclear factor-kappa B in ARPE-19 cells; type: cell-based, Human; details: 2.5 mM, hypoxia
Description: (§2) Human retinal pigment epithelium cell line, ARPE-19, was purchased from American Type Culture Collection (Manassas, VA, USA). The ARPE-19 cells were maintained in RPMI1640 containing 10% fetal bovine serum (Life Technologies, Gaithersburg, MD, USA), 100 IU/ml penicillin, and 100 μg/ml streptomycin (Welgene, Daegu, South Korea).
ARPE-19 and SK-N-SH cells were fixed on bio-coated coverslips (BD bioscience, San Jose, CA, USA) by 4% PFA for 20 min and then incubated with the primary antibodies for 15 h. The primary antibodies were as follows: HIF-1a (1:300, BD Biosciences, San Jose, CA, USA); LDH-A (1:300, Santa Cruz Biotechnology, Santa Cruz, CA, USA); LDH-B (1:300, Santa Cruz Biotechnology, Santa Cruz, CA, USA); NF-κB (1:300, Santa Cruz Biotechnology, Santa Cruz, CA, USA); TLR-4 (1:300, Santa Cruz Biotechnology, Santa Cruz, CA, USA); apoE (1:200, Santa Cruz Biotechnology, Santa Cruz, CA, USA). After PBS wash, the cells were incubated with anti-mouse secondary biotinylated antibody (1:2000, Vector Laboratorie, Burlingame, CA, USA) and visualized with streptavidin conjugated to Fluorescein (Vector Laboratorie, Burlingame, CA, USA). […] Confocal fluorescence images were obtained with confocal laser scanning microscopy (LSCM, Nikon A1+, Tokyo, Japan) under a 60× oil immersion lens.

6-OHDA injected rats = assay: Parkinson's disease model, desipramine and 6-OHDA injection; type: in vivo, Sprague-Dawley (SD) rats; details: 2 mg/kg daily subcutaneous 21 days; 6-OHDA rats
Description: Animals. […] Eight-week old male Sprague-Dawley (SD) rats were obtained from Samtako Co. (Osan, Gyeonggi-do, Republic of Korea) and bred under specific-pathogen-free (SPF) conditions. All animals were maintained in a 12-hour light/dark cycle at 22-25° C. with free access to food and water.
Desipramine (12.5 mg/kg; noradrenaline transporter blocker; Sigma Aldrich, St. Louis, USA) was dissolved in saline for intraperitoneal injection. 6-OHDA (20 μg/rat, Sigma Aldrich, St. Louis, USA) was dissolved in saline for intracranial injection.
Injection of desipramine and 6-OHDA. The animals were injected with desipramine into the abdominal cavity (intraperitoneal injection) 30 min before 6-OHDA injection. 30 min after Desipramine injection, the animals were placed in a small acrylic cage that was coupled with an anesthesia machine that allowed them to breathe freely under gaseous anesthesia (2% isoflurane, Spartanburg, SC, USA). […] The animal fur of head was shaved with an electric clipper, and the skin was swabbed with iodine. All the surgical materials disinfected with 70% ethanol. Hamilton syringe barrel inner space was cleaned with distilled water and 70% ethanol. The Hamilton syringe was placed in the syringe holder. […] The three coordinates (AP: −5.6, LM: 2.0, and DV: −7.6) on the manipulator (in mm) were read and used as the starting point. […]

hypoxia-mediated factors = assay: Eye CID in vitro experiment, Western blot in ARPE-19 cells; type: cell-based, Human; details: 2.5 mM; ARPE-19 cells (retinal pigment epithelium); normoxia and hypoxia
Description: as §2, §1

`CC(O)C(=O)[O-].CC(O)C(=O)[O-].[Ca+2]` (stereo not shown) [calcium lactate] was tested, and the “hypoxia-mediated factors (lactate dehydrogenase A), Western blot” value (lactate dehydrogenase A) was “decreased”, the “inflammatory factor (nuclear factor-kappa B), immunocytochemistry” value (nuclear factor-kappa B) was “decreased” and the “dopaminergic neuron (tyrosine hydroxylase staining)” value (6-OHDA injected rats) was “Recovery”. The “hypoxia-mediated factors, Western blot” value (hypoxia-mediated factors) was “decreased”.
